Results as given in US7750024B2, “Remedy for glioblastoma” (Astellas Pharma Inc., priority 2002, dated 2010).
“And” between values parts separate entries of the source, which are not always exact repeats. Equal entries are not always repeated.

What was measured:
[1] = test system: CGNH-89 human glioblastoma; assay: Growth inhibition on glioblastoma in vivo, CGNH-89 transplanted subcutaneously in nude mice; conditions: 100 mg/kg intraperitoneally for 14 days vs PBS; days 11 and 13 after onset and days 2, 4, 6, 8 after completion of administration
Protocol: Nude mice (5-6 weeks old) were used at this experiment. 10^7 cells of CGNH-89 used in Example 1 were transplanted subcutaneously in the nude mice. On the next day of transplantation, the mice were divided randomly in two groups; a group (n=12) to be administered with 100 mg/kg compound A and a group (n=12) to be administered with PBS (phosphate buffered saline). The drug was administered repeatedly intraperitoneally for 14 days starting on the next day of transplantation. Up to day 8 after the completion of the administration, the mice were observed. The tumor size was measured every two days with a vernier micrometer, to calculate the volume according to the formula (length×width^2)×½.
The results are shown in mean±standard deviation and statistically analyzed by the Student's t-test. The significance level was set at p<0.05.

C6 and RG2 glioma = C6 and RG2 glioma transplanted rats; cited from earlier work
[2] = test system: Human glioblastoma cell (CGNH-89 cell line); assay: Apoptosis by TUNEL method in human glioblastoma cells in vitro; assay type: cell-based
Protocol: (§1) Human glioblastoma cell (CGNH-89 cell line) was used at this experiment. These cells were randomly divided in the following three groups: a group of a glutamate-free medium (no glutamate group; control group); a group of the glutamate-free medium added 100 μM glutamate (100 μM glutamate group); a group of the glutamate-free medium added 100 μM glutamate and 20 μM NBQX (100 μM glutamate+20 μM NBQX group). The cells were incubated for 48 hours. The CGNH-89 cell was cultured in DMEM (Dulbecco's modified Eagle's medium) supplemented with 10% dialyzed fetal calf serum.
(§2) CGNH-89 cell line was established through resection from the tumor at the right front lobe of a person according to the Explant method by Nicolas et al. (Science 196, 60-63, 1977). […] Additionally, the mRNAs of GluR1 through GluR4 were analyzed with antibodies against the AMPA receptor subunits GluR1, GluR2, GluR3 and GluR4 and RT-PCR. Consequently, the cell line expresses GluR1 and GluR4 but not expresses GluR2 and GluR3. As described above, the cell line has the same profile as that of the cell of primary glioblastoma de novo.
(§3) The anti-tumor action was evaluated by calculating the apoptosis score by TUNEL method (terminal deoxynucleotide transferase (TdT)-mediated dUTP nick end labeling) 48 hours after culturing. Additionally, proliferation of the human glioblastoma cell was evaluated, using the antibody Ki67.
(§4) The results are shown as mean±standard deviation and statistically analyzed by the Student's t-test. Significance level was set at p<0.05.

[3] = test system: Human glioblastoma cell (CGNH-89 cell line); assay: Proliferation of human glioblastoma cells by Ki67 antibody staining in vitro; assay type: cell-based
Protocol: as §1, §2, §3, §4

[4] = 20 μM NBQX + 100 μM glutamate, 48 hours incubation, mean±SD
[5] = 20 μM NBQX with 100 μM glutamate, 48 hours
[6] = 100 μM glutamate alone added to glutamate-free medium, 48 hours

O.O=C(O)Cn1c(=O)c(=O)[nH]c2cc([N+](=O)[O-])c(-n3ccnc3)cc21 [Compound A, [7-(1H-imidazol-1-yl)-6-nitro-2,3-dioxo-3,4-dihydroquinoxalin-1 (2H)-yl]acetic acid•monohydrate]
tumor growth inhibition (tumor volume) [1]: significant tumor growth inhibition

C[C@]12N[C@H](Cc3ccccc31)c1ccccc12 [MK-801]
proliferation inhibition (C6 and RG2 glioma): exert a proliferation inhibition

NS(=O)(=O)c1cccc2c1c([N+](=O)[O-])cc1nc(O)c(O)nc12 [NBQX, 2,3-dihydroxy-6-nitro-7-sulfamoyl-benzo(F)-quinoxaline]
TUNEL-SCORE (ratio of apoptosis) [2, 4]: 13.0 ± 2.0%
effect on glutamate-induced suppression of apoptosis [2, 5]: induced the apoptosis
staining index with Ki-67 (proliferation inhibiting activity) [3, 4]: 2.0 ± 1.0%
effect on glutamate-induced proliferative activity [3, 5]: suppressed the glutamate-induced proliferative activity

N[C@@H](CCC(=O)O)C(=O)O [glutamate]
TUNEL-SCORE (ratio of apoptosis) [2, 6]: 3% and 3.0 ± 2.0%
staining index with Ki-67 (proliferation inhibiting activity) [3, 6]: 18.5% and 18.5 ± 3.0%

CC12CC3CC(C)(C1)CC(N)(C3)C2 [memantin]
proliferation inhibition (C6 and RG2 glioma): exert a proliferation inhibition
